Results from ChEMBL document CHEMBL1201862, “PubChem BioAssay data set” (2004).
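Exposure lasted 48 hours, with cells grown in 96-well plates and compounds tested at five concentrations. Abbreviation: GI50, concentration required for 50% inhibition of growth.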 Activity calls are given as the source filed them. No stated cut-off is given here; in the data, active = GI50 up to about 1.1 µM and inactive = higher.

Legend:
Experiment in all cases: DTP human tumour cell line panel, 48 h
[1] = tested on: 786-0
[2] = tested on: A549
[3] = tested on: ACHN
[4] = tested on: CAKI-1
[5] = tested on: COLO 205
[6] = tested on: EKVX
[7] = tested on: HCT-15
[8] = tested on: K562
[9] = tested on: NCI-H460
[10] = tested on: SK-MEL-2
[11] = tested on: SN12C
[12] = tested on: SNB-75
[13] = tested on: TK-10
[14] = tested on: UACC-257
[15] = tested on: UACC-62
[16] = tested on: UO-31
[17] = tested on: HCC 2998
[18] = tested on: MDA-MB-231
[19] = tested on: T47D

Row | SMILES | GI50 [1] | GI50 [2] | GI50 [3] | GI50 [4] | GI50 [5] | GI50 [6] | GI50 [7] [µM] | GI50 [8] | GI50 [9] | GI50 [10] | GI50 [11] | GI50 [12] | GI50 [13] | GI50 [14] | GI50 [15] | GI50 [16] | GI50 [17] | GI50 [18] | GI50 [19]
1 | O=C1C2=C(c3ccccc31)C(c1ccc([N+](=O)[O-])cc1)NC(S)=N2 (stereo not drawn) | > 100 µM (inactive) | 48.5 µM (inactive) | 70 µM (inactive) | > 100 µM (inactive) | > 100 µM (inactive) | > 100 µM (inactive) | 51.9 | 49.1 µM (inactive) | 67.8 µM (inactive) | 96.8 µM (inactive) | 47.4 µM (inactive) | 23.9 µM (inactive) | > 100 µM (inactive) | > 100 µM (inactive) | 43.5 µM (inactive) | 31.8 µM (inactive) |  |  | 
2 | CC(CO)(Nc1ccc([N+](=O)[O-])cc1[N+](=O)[O-])C(=O)O (stereo not drawn) | 71 µM (inactive) | 38.3 µM (inactive) | 18.7 µM (inactive) | 33.8 µM (inactive) | 16.9 µM (inactive) | 29.2 µM (inactive) | 17.6 | 19.1 µM (inactive) | 15.5 µM (inactive) | 20.7 µM (inactive) | 20.7 µM (inactive) |  | 36.1 µM (inactive) | 24.9 µM (inactive) | 33.7 µM (inactive) | 15.9 µM (inactive) | 22.4 µM (inactive) | 79.8 µM (inactive) | 
3 | Cc1ccc(S(=O)(=O)N/N=C2\CC(C)OC3=C2CCCCCC3)cc1 (stereo not drawn) | 17.1 µM (inactive) | 16.7 µM (inactive) | 18.5 µM (inactive) | 25.9 µM (inactive) | 20.9 µM (inactive) | 15.2 µM (inactive) |  | 21.5 µM (inactive) | > 100 µM (inactive) |  | 19.3 µM (inactive) | 24.2 µM (inactive) | 20.5 µM (inactive) | 18.7 µM (inactive) | 14.5 µM (inactive) | 17.4 µM (inactive) |  | 19.1 µM (inactive) | 76.6 µM (inactive)
4 | CC(C)C1CNC2N1C(=O)C2(C)OCc1ccccc1 (stereo not drawn) | > 100 µM (inactive) | > 100 µM (inactive) | > 100 µM (inactive) |  | > 100 µM (inactive) | > 100 µM (inactive) | > 100 | > 100 µM (inactive) | > 100 µM (inactive) | > 100 µM (inactive) | > 100 µM (inactive) | 48.2 µM (inactive) | > 100 µM (inactive) | > 100 µM (inactive) | > 100 µM (inactive) | 81.5 µM (inactive) | > 100 µM (inactive) |  | 
5 | Cc1csc2c(=O)n(C3OC(CO)C(O)C3O)c(=O)[nH]c12 (stereo not drawn) | > 100 µM (inactive) | > 100 µM (inactive) | > 100 µM (inactive) | > 100 µM (inactive) | > 100 µM (inactive) | > 100 µM (inactive) |  | > 100 µM (inactive) | > 100 µM (inactive) |  | > 100 µM (inactive) | > 100 µM (inactive) | 39.5 µM (inactive) | > 100 µM (inactive) |  | > 100 µM (inactive) |  | > 100 µM (inactive) | 
6 | CC1CC(=O)C(CC(=O)O)[C@H]1C(C(=O)C(=O)Nc1cc(Cl)ccc1Cl)[N+](=O)[O-] (stereo partly drawn) | > 100 µM (inactive) | > 100 µM (inactive) | > 100 µM (inactive) | > 100 µM (inactive) | > 100 µM (inactive) | > 100 µM (inactive) | > 100 | > 100 µM (inactive) | > 100 µM (inactive) |  | > 100 µM (inactive) | 85.9 µM (inactive) | > 100 µM (inactive) |  | > 100 µM (inactive) | > 100 µM (inactive) | > 100 µM (inactive) |  | 
7 | O=C(c1ccc2ccccc2c1)C1S(=O)(=O)OCCOS1(=O)=O | > 100 µM (inactive) | > 100 µM (inactive) | > 100 µM (inactive) | > 100 µM (inactive) | > 100 µM (inactive) | > 100 µM (inactive) | > 100 | > 100 µM (inactive) | > 100 µM (inactive) | > 100 µM (inactive) | > 100 µM (inactive) |  | > 100 µM (inactive) | > 100 µM (inactive) |  | > 100 µM (inactive) | > 100 µM (inactive) |  | 
8 | Cc1cc2c3c(c1)S(=O)(=O)c1cc(Cl)ccc1N3CCC2 | 82.2 µM (inactive) | > 100 µM (inactive) | > 100 µM (inactive) | > 100 µM (inactive) | > 100 µM (inactive) | > 100 µM (inactive) | > 100 | 96.8 µM (inactive) | > 100 µM (inactive) | > 100 µM (inactive) | > 100 µM (inactive) | 58.5 µM (inactive) | > 100 µM (inactive) | 60.8 µM (inactive) | > 100 µM (inactive) | > 100 µM (inactive) | > 100 µM (inactive) | 83.9 µM (inactive) | 
9 | C=C(C1=CC(=O)C(C)(C)O1)[C@@H]1CC=C([C@@H]2CC[C@H]3[C@@]2(C)CC[C@H]2C(C)(C)C(=O)[C@H](OC(=O)CC(C)(O)CC(=O)O)C[C@]32C)[C@H](O)O1 (stereo partly drawn) | 11.1 µM (inactive) | 17.6 µM (inactive) | 14 µM (inactive) | 17.2 µM (inactive) | 12.5 µM (inactive) | 15.3 µM (inactive) | 13.3 | 25.7 µM (inactive) | 15.9 µM (inactive) | 12.9 µM (inactive) | 15.3 µM (inactive) |  | 27.4 µM (inactive) | 15.2 µM (inactive) | 12.1 µM (inactive) | 13.6 µM (inactive) |  | 17.4 µM (inactive) | 
10 | COc1ccc2nc(-c3cccs3)cc(C(O)CN3CCSCC3)c2c1 (stereo not drawn) | 16.8 µM (inactive) | 30.1 µM (inactive) | 13.5 µM (inactive) | 17.3 µM (inactive) | 22.9 µM (inactive) | 29 µM (inactive) | 16.1 | 12.9 µM (inactive) | 16.3 µM (inactive) | 17 µM (inactive) | 25.1 µM (inactive) | 23.6 µM (inactive) | 31.2 µM (inactive) | 21.2 µM (inactive) | 17.7 µM (inactive) | 18.7 µM (inactive) | 19.7 µM (inactive) |  | 
11 | C#CCOC(=O)C=[N+]=[N-] | > 10 µM (inactive) | > 10 µM (inactive) | > 10 µM (inactive) |  |  | > 10 µM (inactive) | > 10 | > 10 µM (inactive) | > 10 µM (inactive) | > 10 µM (inactive) | > 10 µM (inactive) |  |  | > 10 µM (inactive) | > 10 µM (inactive) | > 10 µM (inactive) |  | > 10 µM (inactive) | > 10 µM (inactive)
12 | O=C(NC(Cc1ccccc1)(Cc1ccc(O)cn1)C(=O)O)c1ccccc1 (stereo not drawn) | > 100 µM (inactive) | > 100 µM (inactive) | > 100 µM (inactive) | > 100 µM (inactive) | 84.7 µM (inactive) | 55.6 µM (inactive) | > 100 | > 100 µM (inactive) | > 100 µM (inactive) | > 100 µM (inactive) |  | 69.2 µM (inactive) | > 100 µM (inactive) | > 100 µM (inactive) | > 100 µM (inactive) | 86.5 µM (inactive) | 99.1 µM (inactive) | > 100 µM (inactive) | 
13 | O=C1C2=C(c3ccccc31)C(c1ccccc1)NC(S)=N2 (stereo not drawn) | 27.4 µM (inactive) | 45.9 µM (inactive) | > 100 µM (inactive) | 48.8 µM (inactive) | > 100 µM (inactive) | > 100 µM (inactive) | 37.1 | 22.3 µM (inactive) | 91.6 µM (inactive) | 84.1 µM (inactive) | > 100 µM (inactive) | 14.4 µM (inactive) | > 100 µM (inactive) | > 100 µM (inactive) | 29 µM (inactive) | > 100 µM (inactive) | > 100 µM (inactive) |  | 
14 | O=C1OC(CS(=O)(=O)c2ccccc2)CC1O (stereo not drawn) | > 100 µM (inactive) | > 100 µM (inactive) | > 100 µM (inactive) | > 100 µM (inactive) | > 100 µM (inactive) | > 100 µM (inactive) | > 100 | > 100 µM (inactive) | > 100 µM (inactive) | > 100 µM (inactive) | > 100 µM (inactive) |  | > 100 µM (inactive) | > 100 µM (inactive) | 41 µM (inactive) | 55.6 µM (inactive) | > 100 µM (inactive) | > 100 µM (inactive) | 
15 | O=c1cc(-c2ccccc2)[nH]c2cc(Cl)cc(Cl)c12 | 22 µM (inactive) | 53.3 µM (inactive) | 43.9 µM (inactive) | 49 µM (inactive) | > 100 µM (inactive) |  | 6.79 | 7.31 µM (inactive) | 59 µM (inactive) | 46.1 µM (inactive) | 69 µM (inactive) | 10.3 µM (inactive) | 46.1 µM (inactive) | > 100 µM (inactive) | 23.2 µM (inactive) | 84.7 µM (inactive) |  |  | 
16 | COC(=O)C1=CCON(c2ccccc2)C1c1ccccc1 (stereo not drawn) | > 100 µM (inactive) | 40.2 µM (inactive) | 57 µM (inactive) | 42.9 µM (inactive) | 65.8 µM (inactive) | 42.1 µM (inactive) | 38 | 40.4 µM (inactive) | 48.2 µM (inactive) | 65.8 µM (inactive) | > 10 µM (inactive) | 49.5 µM (inactive) | 44.9 µM (inactive) |  | 49.8 µM (inactive) | 36.1 µM (inactive) | 65.5 µM (inactive) |  | 
17 | C=CCC(CC=O)(C(=O)OCC)C(=O)OCC | > 100 µM (inactive) | > 100 µM (inactive) | > 100 µM (inactive) | > 100 µM (inactive) | > 100 µM (inactive) | > 100 µM (inactive) | > 100 | > 100 µM (inactive) | > 100 µM (inactive) | > 100 µM (inactive) | > 100 µM (inactive) | > 100 µM (inactive) | > 100 µM (inactive) | > 100 µM (inactive) | > 100 µM (inactive) | 76.2 µM (inactive) |  | > 100 µM (inactive) | 
